Consider five compounds from PMC10840477 (Acta Pharmaceutica Sinica. B, 2023).

One test addresses P2Y12 (Homo sapiens, UniProt Q9H244). As to the kind of experiment: P2Y12 β-Arrestin recruitment assay. Conditions: at similar concentrations as TP1; antagonist mode, n = 2. In kind it is cell-based. A general note: Activated receptors often draw arrestin, which recruitment assays turn into a signal.
For test [1], the system named is ICR mice. As to the kind of experiment: In vivo acute pulmonary thrombosis. To be noted: three days, positive control. More on the design: species or system mouse.
Test [2] deals with ICR mice. As to the kind of experiment: Forced swimming test. In kind it is in vivo, mouse. To be noted: p.o. 20 mg/kg, positive control, final 4 min of 6 min test.
Test [3] has as its system ICR mice. The test can be described thus: Tail suspension test. In kind it is in vivo, mouse. Conditions: p.o. 20 mg/kg, positive control, final 4 min of 6 min test.

Sequence of P2Y12 (Q9H244 whole entry): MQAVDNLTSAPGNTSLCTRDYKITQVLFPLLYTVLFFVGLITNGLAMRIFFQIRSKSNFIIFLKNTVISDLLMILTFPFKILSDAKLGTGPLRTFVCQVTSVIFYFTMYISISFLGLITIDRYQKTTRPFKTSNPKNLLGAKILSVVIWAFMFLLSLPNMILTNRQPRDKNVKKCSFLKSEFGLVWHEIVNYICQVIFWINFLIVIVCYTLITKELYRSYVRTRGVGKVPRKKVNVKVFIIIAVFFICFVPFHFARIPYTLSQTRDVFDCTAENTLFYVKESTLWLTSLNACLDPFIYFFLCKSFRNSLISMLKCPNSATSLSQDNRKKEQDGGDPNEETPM

For `CC(C)=CCC[C@](C)(O[C@@H]1O[C@H](CO[C@@H]2O[C@H](CO)[C@@H](O)[C@H](O)[C@H]2O)[C@@H](O)[C@H](O)[C@H]1O)[C@H]1CC[C@]2(C)[C@@H]1[C@H](O)C[C@@H]1[C@@]3(C)CC[C@H](O[C@@H]4O[C@H](CO)[C@@H](O)[C@H](O)[C@H]4O[C@@H]4O[C@H](CO)[C@@H](O)[C@H](O)[C@H]4O)C(C)(C)[C@@H]3CC[C@]12C` [ginsenoside Rb1], the “Inhibitory effects against P2Y12 activation” value at P2Y12 is given as “did not display inhibitory effects”.
On to `CC(=O)Oc1ccccc1C(=O)O` [aspirin], for which the “Thrombus formation in the lung, effect relative to ginsentide TP1” value in the test with ICR mice [1] (oral aspirin 100 mg/kg) is given as “comparable”.
Consider `COC(=O)[C@H](c1ccccc1Cl)N1CCc2sccc2C1` [clopidogrel], for which the “Thrombus formation in the lung, effect relative to ginsentide TP1” value in the test with ICR mice [1] (oral clopidogrel 50 mg/kg) is “comparable”.
For the compound `CNCCC(Oc1ccc(C(F)(F)F)cc1)c1ccccc1` (stereo not drawn) [fluoxetine], in the test on ICR mice [2], the “Decrease of immobility time, forced swimming test” value is recorded as 42.52 ± 9.96 s. Moreover, the “Decrease of immobility time, tail suspension test” value in the test with ICR mice [3] was 30.01 ± 7.22 s.
Regarding `CC(C)=CCC[C@](C)(O[C@@H]1O[C@H](CO)[C@@H](O)[C@H](O)[C@H]1O)[C@H]1CC[C@]2(C)[C@@H]1[C@H](O)C[C@@H]1[C@@]3(C)CC[C@H](O)C(C)(C)[C@@H]3[C@@H](O[C@@H]3O[C@H](CO)[C@@H](O)[C@H](O)[C@H]3O)C[C@]12C` [ginsenoside Rg1], the “Inhibitory effects against P2Y12 activation” value on P2Y12 is “did not display inhibitory effects”.
